Data taken from US11337909B2, “Methods for modulating pigmentation by angiotensin-converting enzyme 2 modulation” (Max-Delbrück-Centrum für Molekulare Medizin in der …, priority 2017, dated 2022).
“Also recorded” adds a separate entry of the source. Counter-ions that a name gives are not always drawn. Each block holds one molecule with its values, some of them ahead of it.

Legend:
[1] = system: ACE2; assay: ACE2 expression in B16F10 cells by real-time RT-PCR; format: cell-based, mouse; details: 10 ng/μl DIZE, 48 hours, FIG. 8
Experimental: B16F10 mouse melanoma cells were incubated with 10 ng/μl diminazene aceturate (DIZE, ACE2 activator) for 48 hours and the expression of ACE2 was quantified by real-time RT-PCR; *p<0.05.

[2] = system: tyrosinase (TYR); assay: Tyrosinase (TYR) expression in B16F10 cells by real-time RT-PCR; format: cell-based, mouse; details: 1 nM aMSH + 10 ng/μl DIZE, 48 hours, FIG. 7; dihydrochloride
Experimental: B16F10 mouse melanoma cells were incubated with 1 nM aMSH, 10 ng/μl diminazene aceturate (DIZE, ACE2 activator) or a combination of both for 48 hours and the expression of the melanin-synthesizing enzyme tyrosinase (TYR) was quantified by real-time RT-PCR; **p<0.01; *p<0.05.
B16F10 mouse melanoma cells were incubated with 1 nM aMSH, 10 ng/μl diminazene aceturate (DIZE, ACE2 activator) or a combination of both for 48 hours and the expression of the melanin-synthesizing enzyme tyrosinase (TYR) was quantified by real-time RT-PCR.

[3] = target: T1, ACE2 (Homo sapiens, UniProt Q9BYF1); details: in vitro and in vivo; Shenoy et al; cited from earlier work
Target sequence in this assay (Q9BYF1 18-805, species assumed): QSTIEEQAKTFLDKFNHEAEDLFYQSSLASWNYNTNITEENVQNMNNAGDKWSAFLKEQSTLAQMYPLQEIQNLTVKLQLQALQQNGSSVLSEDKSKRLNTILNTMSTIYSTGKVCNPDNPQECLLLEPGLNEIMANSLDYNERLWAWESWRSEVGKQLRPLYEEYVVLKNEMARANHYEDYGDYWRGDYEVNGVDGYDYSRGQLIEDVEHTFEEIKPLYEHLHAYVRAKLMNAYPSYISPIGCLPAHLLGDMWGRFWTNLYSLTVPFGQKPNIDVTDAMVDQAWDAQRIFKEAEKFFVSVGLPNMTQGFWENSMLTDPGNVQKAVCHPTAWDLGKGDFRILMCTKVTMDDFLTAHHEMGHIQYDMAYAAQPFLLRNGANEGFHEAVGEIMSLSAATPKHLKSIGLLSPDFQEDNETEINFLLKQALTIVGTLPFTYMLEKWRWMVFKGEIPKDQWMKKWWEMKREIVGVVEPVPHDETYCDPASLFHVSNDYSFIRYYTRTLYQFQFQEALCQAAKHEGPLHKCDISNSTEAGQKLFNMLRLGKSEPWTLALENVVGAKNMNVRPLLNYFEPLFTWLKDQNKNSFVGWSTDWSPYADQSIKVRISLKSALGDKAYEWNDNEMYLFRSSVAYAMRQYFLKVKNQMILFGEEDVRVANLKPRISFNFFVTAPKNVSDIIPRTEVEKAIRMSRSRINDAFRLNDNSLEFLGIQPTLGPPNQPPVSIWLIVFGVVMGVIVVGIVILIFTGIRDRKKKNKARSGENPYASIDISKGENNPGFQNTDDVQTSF

[4] = system: human abdominal skin biopsies; assay: Fontana-Masson melanin staining in human abdominal skin biopsies; format: cell-based; details: FIG. 5
Experimental: FIG. 5: ACE2 limits the efficiency of αMSH1-13 in human skin; Fontana-Masson staining in human abdominal skin biopsies. Melanin was stained black by Fontana-Masson staining in human abdominal skin biopsies after treatment with vehicle, 10 nM αMSH1-13, or 10 nM αMSH1-13+100 nM of the ACE2-Inhibitor MLN476.
(§1) Biopsies were treated with vehicle, 10 nM αMSH1-13, 10 nM αMSH1-13+100 nM of the ACE2-Inhibitor MLN4760, or 100 nM MLN4760 alone.

[5] = system: Tyrosinase; assay: Tyrosinase mRNA expression in human abdominal skin biopsies; format: cell-based; details: for tyrosinase mRNA expression: FIG. 4
Experimental: FIG. 4: ACE2 limits the efficiency of αMSH1-13 in human skin; Tyrosinase expression. Tyrosinase (melanin synthesizing enzyme) mRNA expression was measured in human abdominal skin biopsies after treatment with vehicle, 10 nM αMSH1-13, 10 nM αMSH1-13+100 nM of the ACE2-Inhibitor MLN4760, or 100 nM MLN4760 alone.
as §1

[6] = system: B16F10 mouse melanoma cells; assay: Cell culture assay for melanogenesis in B16F10 melanoma cells; format: cell-based
From the text: FIG. 2: Melanogenesis in B16F10 melanoma cells stimulated with α-MSH1-13 and α-MSH1-12. *** p<0.001 compared to control without α-MSH, +++, +p<0.001, p<0.05 α-MSH1-12 compared to the same concentration of α-MSH1-13.
In wild-type mice, the inventors further confirmed previous studies in humans (Ham-ming et al., 2004, Grzegrzolka et al., 2013) showing that ACE2 is expressed in the skin.

[7] = target: T1, ACE2; details: ACE2 inhibitor; cited from earlier work
Target sequence in this assay (Q9BYF1 18-805, species assumed): as above

[8] = target: T1, ACE2; parameters: purchased Enzo life sciences, Plymouth meeting, PA; details: Kulemina and Ostrov; cited from earlier work
Target sequence in this assay (Q9BYF1 18-805): as the sequence (Q9BYF1 18-805, species assumed) above

[9] = target: T1, ACE2; details: Hernandez Prada et al; cited from earlier work
Target sequence in this assay (Q9BYF1 18-805, species assumed): as above

[10] = target: T1, ACE2; details: Mores et al; read-out: Ki value toward ACE2; cited from earlier work
Target sequence in this assay (Q9BYF1 18-805, species assumed): as above

Molecule: N=C(N)c1ccc(/N=N/Nc2ccc(C(=N)N)cc2)cc1 [DIZE, 4-[2-(4-carbamimidoylphenyl)iminohydrazinyl]benzenecarboximidamide dihydrochloride]
ACE2 expression [1]: stimulates ACE2 expression
tyrosinase (TYR) expression, effect on αMSH stimulation [2]: inhibits the stimulating effect of aMSH; also recorded: inhibits the stimulating effect of αMSH
enhancement of the enzymatic activity of ACE2 [3]: enhance the enzymatic activity of ACE2

Molecule: CC(C)C[C@H](N[C@@H](Cc1cncn1Cc1cc(Cl)cc(Cl)c1)C(=O)O)C(=O)O [MLN-4760, (2S)-2-[[(1S)-1-carboxy-2-[3-[(3,5-dichlorophenyl)methyl]imidazol-4-yl]ethyl]amino]-4-methylpentanoic acid]
melanin levels (Fontana-Masson staining), effect on αMSH1-13 increase ([4]; 10 nM αMSH1-13 + 100 nM ACE2 inhibitor): This effect is further increased by ACE2 inhibition
tyrosinase mRNA expression, effect on αMSH1-13 stimulation ([5]; 10 nM αMSH1-13 + 100 nM MLN4760, FIG. 4): This effect is increased by ACE2 inhibition
tyrosinase mRNA expression ([5]; 100 nM MLN4760 alone): ACE2 inhibition alone already stimulates tyrosinase expression
effect on the ACE2-mediated inhibition of α-MSH1-13 melanogenic effect ([6]; B16F10 cells, α-MSH1-13 + human recombinant ACE2, FIG. 3): inhibits the effect of ACE2
IC50 [7]: 0.5 nM

Molecule: Cc1ccc(S(=O)(=O)Oc2ccc3oc4c(CO)ccc(NCCN(C)C)c4c(=O)c3c2)cc1 [XNT, [8-(2-dimethylaminoethylamino)-5-(hydroxymethyl)-9-oxoxanthen-2-yl]4-methyl-benzenesulfonate]
increase of the velocity of the enzyme (rate of catalysis) [8]: approximately twofold
enhancement of ACE2 activity [9]: enhance ACE2 activity in a dose-dependent manner

Molecule: CC(=O)NC(Cc1c[nH]cn1)C(=O)N1CCCC1P(=O)(O)CC(Cc1cc(-c2ccccc2)no1)C(=O)O (stereo not shown) [compound 41]
Ki [10]: 0.4 nM

Molecule: O=C1OC2(c3ccc(O)cc3Oc3cc(O)ccc32)c2cccc3cccc1c23 [resorcinolnaphthalein]
enhancement of ACE2 activity [9]: enhance ACE2 activity in a dose-dependent manner

Molecule: human recombinant ACE2: human recombinant angiotensin-converting enzyme 2
effect of added ACE2 on melanogenic activity of α-MSH1-13 ([6]; B16F10 cells, with α-MSH1-13, FIG. 3 upper panel): Inhibition of the melanogenic effect of α-MSH1-13; also recorded: reduces its melanogenic activity

Molecule: α-MSH1-12: expected ACE2 digestion product of α-MSH1-13 (SYSMEHFRWGKP)
melanogenic activity relative to α-MSH1-13 ([6]; B16F10 mouse melanoma cells, FIG. 2): at least 100 times less active

tyrosinase mRNA expression ([5]; 10 nM αMSH1-13 vs vehicle): stimulates tyrosinase expression
Molecule: α-MSH1-13: α-melanocyte stimulating hormone, 13-amino-acid peptide hormone
melanin levels (Fontana-Masson staining) ([4]; 10 nM αMSH1-13 vs vehicle): increases melanin levels
